# Test results from ChEMBL document CHEMBL3994630, “Antiparasitic lethality of sulfonamidebenzamides in kinetoplastids” (Bioorg Med Chem Lett, 2017).
# Calls of active or inactive are those of the source. The rule behind the calls is not given here.
# Experiments:
# IMR-90 = assay: Cytotoxicity against human IMR90 cells after 44 to 46 hrs by CellTiter-Blue assay; assay type: cell-based
# Trypanosoma brucei [1] = assay: Antitrypanosomal activity against Trypanosoma brucei 90-13 bloodstream forms after 72 hrs by CellTiter-Blue assay; assay type: functional; conditions: 90-13, 72 h
# [2] = Selectivity index, ratio of EC50 for cytotoxicity against human IMR90 cells to EC50 for antitrypanosomal activity against Trypanosoma brucei 90-13 bloodstream forms; assay type: toxicity, cell-based; conditions: read-out: Ratio EC50
# Leishmania amazonensis = assay: Anti-parasitic activity against Leishmania amazonensis promastigotes after 44 hrs by CellTiter-Blue assay; assay type: functional
# [3] = Selectivity index, ratio of EC50 for cytotoxicity against human IMR90 cells to EC50 for anti-parasitic activity against Leishmania amazonensis promastigotes; assay type: toxicity, cell-based; conditions: read-out: Ratio EC50
# Trypanosoma brucei [4] = assay: Induction of apoptosis in Trypanosoma brucei 90-13 bloodstream forms after 6 to 24 hrs by Annexin-V-FITC/propidium iodide staining based flow cytometry; assay type: functional
# Trypanosoma brucei [5] = assay: Induction of apoptosis in Trypanosoma brucei 29-13 procyclic forms after 6 to 24 hrs by Annexin-V-FITC/propidium iodide staining based flow cytometry (reference value: 658 RFU); assay type: functional
# Trypanosoma brucei [6] = assay: Induction of apoptosis in Trypanosoma brucei 90-13 bloodstream forms assessed as dead cells at EC50 after 6 to 24 hrs by Annexin-V-FITC/propidium iodide staining based flow cytometry (reference value: 49.7%); assay type: functional
# Trypanosoma brucei [7] = assay: Induction of apoptosis in Trypanosoma brucei 90-13 bloodstream forms at EC50 after 6 hrs by Annexin-V-FITC/propidium iodide staining based flow cytometry (reference value: 47.3%); assay type: functional
Compound,EC50 (Trypanosoma brucei [1]) [µM],EC50 (IMR-90) [µM],selectivity ratio [2],EC50 (Leishmania amazonensis) [µM],selectivity ratio [3],Activity (Trypanosoma brucei [4]),Activity (Trypanosoma brucei [5]) [RFU],Activity (Trypanosoma brucei [6]) [%],Activity (Trypanosoma brucei [7]) [%]
O=C(Nc1ccc(S(=O)(=O)N2CCOCC2)cc1)c1ccc([N+](=O)[O-])s1,0.06,> 25,> 417,1.3,> 19,,,,
N=C1CCN(S(=O)(=O)c2ccc(NC(=O)c3ccc([N+](=O)[O-])o3)cc2)CC1,0.73,> 25,> 34,10.5,> 2,,,,
CC1(C)CCN(S(=O)(=O)c2ccc(NC(=O)c3cccc([N+](=O)[O-])c3)cc2)CC1,6.6,> 25,> 4,13.3,> 2,,,,
O=C(Nc1ccc(S(=O)(=O)N2CCC3(CCCCC3)CC2)cc1)c1ccc([N+](=O)[O-])o1,0.03,> 25,> 833,1.5,> 17,,,,
O=C(Nc1ccc(S(=O)(=O)N2CCC(O)CC2)cc1)c1ccc([N+](=O)[O-])o1,0.31,> 25,> 81,4.4,> 6,Active,849,,
O=C(Nc1ccc(S(=O)(=O)N2CCOCC2)cc1)c1cccs1,> 10,> 25,,> 25,,,,,
O=C(Nc1ccc(S(=O)(=O)N2CCOCC2)cc1)c1ccc([N+](=O)[O-])o1,0.46,> 25,> 54,3,> 8,,,,
CC1(C)CCN(S(=O)(=O)c2ccc(NC(=O)c3ccc([N+](=O)[O-])o3)cc2)CC1,0.09,> 25,> 278,0.28,> 89,,,,
CC(C)(C)C1CCN(S(=O)(=O)c2ccc(NC(=O)c3ccc([N+](=O)[O-])o3)cc2)CC1,0.03,> 25,> 833,1.4,> 18,,,48.2,82
CC(C)(C)C1CCN(S(=O)(=O)c2ccc(NC(=O)c3ccc([N+](=O)[O-])s3)cc2)CC1,0.03,> 25,> 833,0.1,> 250,,,,
CC1(C)CCN(S(=O)(=O)c2cccc(NC(=O)c3cccc([N+](=O)[O-])c3)c2)CC1,10.4,> 25,> 2,3,> 8,,,,
O=C(Nc1ccc(S(=O)(=O)N2CCOCC2)cc1)c1ccco1,> 10,> 25,,> 25,,,,,
O=C(Nc1cccc(S(=O)(=O)N2CCOCC2)c1)c1ccc([N+](=O)[O-])o1,1.47,> 25,> 17,0.9,> 28,,,,
O=C(Nc1ccc(S(=O)(=O)N2CCC3(CCCCC3)CC2)cc1)c1ccc([N+](=O)[O-])s1,0.02,> 25,> 1250,0.1,> 250,,,,
O=C(Nc1ccc(S(=O)(=O)N2CCCCC2)cc1)c1ccc([N+](=O)[O-])o1,0.22,> 25,> 114,13.7,> 2,,,,
Cc1ccc(C(=O)Nc2ccc(S(=O)(=O)N3CCOCC3)cc2)o1,> 10,> 25,,> 25,,,,,
CC1(C)CCN(S(=O)(=O)c2cccc(NC(=O)c3ccco3)c2)CC1,5.11,> 25,> 5,1.2,> 21,,,,

# Further lines, with some results ahead:
EC50 (Trypanosoma brucei [1]) [µM],Compound,EC50 (IMR-90) [µM],selectivity ratio [2],EC50 (Leishmania amazonensis) [µM],selectivity ratio [3],Activity (Trypanosoma brucei [4]),Activity (Trypanosoma brucei [5]) [RFU],Activity (Trypanosoma brucei [6]) [%],Activity (Trypanosoma brucei [7]) [%]
0.49,O=C(Nc1ccc(S(=O)(=O)C2CCCCC2)cc1)c1ccc([N+](=O)[O-])o1,> 25,> 51,1.6,> 16,,,,
0.08,O=C(Nc1ccc(S(=O)(=O)N2CCC(Cl)CC2)cc1)c1ccc([N+](=O)[O-])o1,> 25,> 313,7.9,> 3,,,,
0.53,O=C(Nc1ccc(S(=O)(=O)C2=CCOC=C2)cc1)c1ccc([N+](=O)[O-])o1,> 25,> 47,0.3,> 83,,,,
7.55,CC1(C)CCN(S(=O)(=O)c2ccc(NC(=O)c3ccc(C(F)(F)F)o3)cc2)CC1,> 25,> 3,10.7,> 2,,,,
0.045,CC1(C)CCN(S(=O)(=O)c2cccc(NC(=O)c3ccc([N+](=O)[O-])s3)c2)CC1,> 25,> 556,1.3,> 19,,,,
0.01,CC1(C)CCN(S(=O)(=O)c2ccc(NC(=O)c3ccc([N+](=O)[O-])s3)cc2)CC1,> 25,> 2500,0.1,> 250,,,,
7.5,CC1CS(=O)(=O)CCN1/N=C/c1ccc([N+](=O)[O-])o1 (configuration not stated) [NIFURTIMOX],> 25,,0.8,,,,,
0.32,CC1(C)CCN(S(=O)(=O)c2cccc(NC(=O)c3ccc([N+](=O)[O-])o3)c2)CC1,> 25,> 78,0.1,> 250,,,,
0.42,O=C(Nc1ccc(S(=O)(=O)N2CCC(F)CC2)cc1)c1ccc([N+](=O)[O-])o1,> 25,> 60,7.4,> 3,,,,
> 10,O=C(Nc1ccc(S(=O)(=O)N2CCOCC2)cc1)c1ccccc1,> 25,,> 25,,,,,
0.12,CC1CCN(S(=O)(=O)c2ccc(NC(=O)c3ccc([N+](=O)[O-])o3)cc2)CC1,> 25,> 208,7.7,> 3,,,,
0.11,O=C(Nc1ccc(S(=O)(=O)c2ccccc2)cc1)c1ccc([N+](=O)[O-])o1,> 25,> 227,4.3,> 6,,,,
> 10,O=C(Nc1ccc(S(=O)(=O)N2CCOCC2)cc1)c1ccc([N+](=O)[O-])cc1,> 25,,> 25,,,,,
